# Test results from patent US11590154B2, “Triple antibiotic fixed-dose combination products, dosing regimen, methods, and kits for treating pulmonary non-tuberculosis mycobacterial infections” (priority 2020, dated 2023).
# Entries after “also recorded” stand apart in the source; their conditions may differ. Like-named read-outs stand apart in the source and are kept apart here.
# Legend:
# MAC [1] = assay: MIC of the MAC strains used in the HFS-MAC studies; assay type: cell-based, Mycobacterium avium complex; conditions: Mycobacterium avium
# Description: The MAC strain used in the HFS-MAC studies was ATCC strain 700898. The study center also had 5 well-characterized clinical strains that have undergone whole-genome sequencing and habituation to the HFS-MAC. Stock cultures of MAC were stored at −80° C. in Middlebrook 7H9 broth with 10% OADC and 10% glycerol. THP-1 monocytes were stored in liquid nitrogen and have been habituated for the HFS-MAC growth conditions.
# NTM = conditions: mouse models of systemic and lung infection; preclinical literature; cited from earlier work
# M. avium = assay: MIC of antibiotics by broth microdilution, M. avium strains of Examples 3 and 4; assay type: cell-based, Mycobacterium avium subsp. hominissuis; conditions: 7H10 agar plates for tissue CFU counts
# Description: Susceptibility testing was conducted using broth microdilution single and twofold dilutions as described in the literature. Suspensions were prepared by swabs on a growth plate with a sterile cotton swab, or were prepared in broth culture. The growth was transferred to a 4.5 mL of phosphate buffer solution (PBS) until the turbidity matched the density of a 0.5 McFarland standard. Suspensions were then vigorously mixed on a vortex mixer for 15 to 20 seconds. The final inoculum was prepared to a bacterial density of 10^5. The tube was inverted 8-10 times to mix the suspension.
# Following both the four-week and eight-week treatment period, mice were sacrificed, and lungs and spleens were harvested for CFU counts in each tissue and compared to CFUs recovered in the baseline and vehicle-treated groups. Tissue samples were plated with and without antibiotic on 7H10 agar. Antibiotic plates were made with minimum inhibitory concentrations (MICs) of 8 μg/ml for clarithromycin, and 0.25, μg/ml for both rifabutin (RFB) and clofazimine (CFZ). Plates were made for each of clarithromycin (CLR) alone, clarithromycin plus either rifabutin (CLR+RFB) or clofazimine (CLR+CFZ) and the three-drug combination (CLR+RFB+CFZ). All plates were incubated in a microbiological incubator at 37° C. for 14 days.
# [2] = 7-day mouse tolerability and PK study; conditions: for Cavg (clofazimine): AUCtlast/24 h; for AUC(0-t): AUCtlast (clofazimine); for AUC(0-t) / Cmax: mouse plasma; for Cmax: Cmax (clofazimine)
# Description: Sixty (60) female mice were tested, 12 per treatment groups: […]
# [3] = Concentration vs. QTcF analysis of MAP Study data (linear mixed-effects model); assay type: in vivo, human
# Description: A concentration vs. QTcF analysis was performed on a subset of data from the MAP Study where the PK sample was drawn within 1 hour of ECG extraction. The rationale for this window was based primarily on the assumption that at least for the rifabutin and clofazimine components, the long half-life would result in modest fluctuation of concentration over the dosing interval and thus the concentrations used in the analysis would enable fitting of a linear model suitable for prediction of the effect at the maximum concentration for each component (Cmax). Initially, a full model (including clarithromycin, 14-OH-clarithromycin, rifabutin, 25-O-desacetyl-rifabutin, and clofazimine) with random intercept and slopes per subject was fit and an unstructured covariance structure was used. […] Several models were then assessed with the best model retained, where only clofazimine concentration was retained as the drug component predictor of QT response.
# The relationship between the individually observed clofazimine plasma concentrations and estimated placebo-adjusted ΔQTcF (i.e., ΔΔQTcF) is shown in FIG. 9. The solid line and the dotted line denotes the model-predicted mean ΔΔQTcF with 90% CI. The squares and circles denote the pairs of observed clofazimine plasma concentrations and estimated placebo-adjusted ΔQTcF by subjects for the RHB-104 and placebo treatment groups, respectively. […]
# MAC bacteria = assay type: cell-based, Mycobacterium avium complex; conditions: 2×MIC; starting inoculum 5.5 log10 CFU/ml
# Description: In vitro, efficacy was studied in static time-kill kinetics assays (at 2×minimum inhibitory concentration [MIC]), intended to mirror a desired peak serum concentration for all three antibiotics using an established assay. All experiments were performed with a starting inoculum of 5.5 log10 CFU/ml MAC bacteria, higher than the bacterial load expected in the airway secretions of patients with mild nodular-bronchiectatic disease due to MAC.
# [4] = cited from earlier work; for airway concentration relative to plasma (ELF:plasma ratio as percent): Dheda et al. 2018
# MAC [5] = assay: Lung histopathology of mice infected with MAC and treated for four and eight weeks; assay type: in vivo, Mycobacterium avium complex; conditions: 32 sections per group
# Description: Lung and Spleen Histopathology of Mice Infected with MAC and Treated with FDC Components Alone and in Combination for Four and Eight Weeks of Treatment
# Each of the experimental group had eight cut examined from each lung (8×2 lungs=16×2 mice=32 sections). Lungs were normal and not showing any pathology at pre-infection.
# M. avium 104 biofilm = assay: In vitro biofilm model of infection; assay type: cell-based, Mycobacterium avium subsp. hominissuis; conditions: mean ± SD; CLR 1.9-4.3 μg/mL, RFB 0.04 μg/mL, CFZ 0.0005 μg/mL
# [6] = tested on: intracellular MAC in THP-1 monocytes; assay: Hollow fiber system model of MAC (HFS-MAC): microbial kill; assay type: cell-based, Mycobacterium avium complex; conditions: HF experiments
# Description: The anti-mycobacterial effects of CLR, CFZ, and RFB was evaluated in the hollow fiber system model of MAC (HFS-MAC), which recapitulates the intrapulmonary concentrations of these antibiotics. The HFS-MAC allows for an assessment of the contribution of individual drug components in terms of anti-mycobacterial effects and enables exploration of potential synergy, additivity, or antagonism of different doses of drugs and combination regimens on the log-phase growth of intracellular MAC, for both microbial kill and resistance suppression.
# A two-part investigation was conducted to assess the contribution of components of various FDC products comprising CLR, CFZ, and RFB in terms of depth and rate of MAC kill and suppression of the emergence of resistance. The anti-MAC activity of each antibiotic component was evaluated as one-drug alone; as two-drug combinations and the three-drug combination. For each combination (singlet, doublet or triplet), the drug concentrations were sampled from the HF fluid bathing MAC-infected cells. […] Anti-MAC activity was evaluated by kill slopes defined as the kill rate constant (and the half-life of kill [reciprocal of the kill rate constant]) as well as the maximum kill, defined as the maximum reduction in MAC CFUs and compared between the different antibiotic combinations.
# MAC was grown into log-phase for 4 days, parallel with cultivation of THP-1 monocytes. The THP-1 cells were then infected with MAC overnight at a multiplicity of infection of 1:1. The THP-1 cells were washed to remove extracellular bacteria, and 20 mL of 1×10^6 (6.0 log10) cells/mL were inoculated into each HFS-MAC on Study Day 0. The peripheral compartment is the abluminal hollow fibers space that is also enclosed by the plastic, while the intraluminal space and flow path form the central compartment. […]
# [7] = female, C57BL/6, mouse, plasma, po, 10 mg/kg, Day 1, CFZ 10 mg/kg alone, oral
# [8] = female, C57BL/6, mouse, plasma, po, 10 mg/kg, Day 7, CFZ 10 mg/kg alone, oral once daily
# [9] = female, C57BL/6, mouse, plasma, po, 30 mg/kg, Day 1, CFZ 30 mg/kg alone, oral
# [10] = female, C57BL/6, mouse, plasma, po, 30 mg/kg, Day 7, CFZ 30 mg/kg alone, oral once daily
# [11] = female, C57BL/6, mouse, plasma, po, 30 mg/kg, Day 7, CFZ 30 mg/kg with CLR 200 mg/kg and RFB 60 mg/kg, oral once daily
compound,measurement,setting,value
"CC(C)/N=c1\cc2n(-c3ccc(Cl)cc3)c3ccccc3nc-2cc1Nc1ccc(Cl)cc1 [Clofazimine, clofazimine]",MIC,MAC [1]; Clinical strain #1,0.25 µg/mL
same,MIC,MAC [1]; Clinical strain #2,0.25 µg/mL
same,MIC,MAC [1]; Clinical strain #3,0.25 µg/mL
same,MIC,MAC [1]; Clinical strain #4,0.25 µg/mL
same,MIC,MAC [1]; Clinical strain #5,0.25 µg/mL
same,Effective Dose,NTM,20 mg/kg/day
same,minimum inhibitory concentrations (MICs) used for antibiotic plates,M. avium,0.25 µg/mL
same,Cavg (clofazimine),"[2]; Day 7, CFZ 10 mg/kg alone",223 ng/mL
same,Cavg (clofazimine),"[2]; Day 7, CFZ 30 mg/kg alone",411 ng/mL
same,Cavg (clofazimine),"[2]; Day 7, CFZ 30 mg/kg with CLR 200 mg/kg and RFB 60 mg/kg",829 ng/mL
same,Tmax,"[2]; female, C57BL/6, mouse, in vivo, po, 10 mg/kg, tmax (clofazimine)",4 h
same,AUC(0-t),"[2]; female, C57BL/6, mouse, in vivo, po, 30 mg/kg, Day 1, CFZ 30 mg/kg with CLR 200 mg/kg and RFB 60 mg/kg, oral",2230 ng·h/mL
same,AUC(0-t),[2]; [7],2150 ng·h/mL
same,AUC(0-t),[2]; [8],5340 ng·h/mL
same,Cmax,[2]; [7],108 ng/mL
same,Cmax,[2]; [8],277 ng/mL
same,AUC(0-t),[2]; [9],3690 ng·h/mL
same,AUC(0-t),[2]; [10],9870 ng·h/mL
same,AUC(0-t),[2]; [11],19900 ng·h/mL
same,Cmax,[2]; [9],181 ng/mL
same,Cmax,"[2]; female, C57BL/6, mouse, plasma, po, 30 mg/kg, Day 1, CFZ 30 mg/kg with CLR 200 mg/kg and RFB 60 mg/kg, oral",152 ng/mL
same,Cmax,[2]; [10],460 ng/mL
same,Cmax,[2]; [11],957 ng/mL
same,treatment effect-specific intercept,[3]; 90% CI 0.76 to 4.29,2.52 ms
same,estimated population slope of the concentration-QTc relationship,"[3]; clofazimine plasma concentration, RHB-104 MAP Study, 90% CI 0.0337 to 0.0410",0.037 ms per ng/mL
same,activity as single drugs,MAC bacteria,bacteriostatic activity
same,airway concentration relative to plasma (ELF:plasma ratio as percent),[4],approximately 0.19%
same,airway concentration relative to plasma (ELF:plasma ratio as percent),[4]; listed as CFZ,approximately 0.2%
same,ELF:plasma ratio,[4]; epithelial lining fluid to total plasma/serum,0.0019
same,half-life,"[4]; human, in vivo",> 100 days
same,Lung Histopathology Findings,MAC [5],Mild diffuse congestion; also recorded: Minimal multi-focus congestion of lymphocytes and plasma cells; also recorded: Granulomas in multiple locations with mild number of bacteria; also recorded: Infiltrates into the bronchiolar walls
same,"Colony Forming Unit Concentration, Four Days",M. avium 104 biofilm,1.91 ± 0.6 × 10^7 CFU/mL
same,"Colony Forming Unit Concentration, Seven Days",M. avium 104 biofilm,1.42 ± 0.5 × 10^7 CFU/mL
same,"effect on CFUs / MAC killing, summary",[6],CFU counts increased
